PMC7770045 (Biochemical pharmacology, 2020)

Molecular target: serotonin transporter (SERT) (Rattus norvegicus, UniProt P31652)
Sequence (P31652 whole entry): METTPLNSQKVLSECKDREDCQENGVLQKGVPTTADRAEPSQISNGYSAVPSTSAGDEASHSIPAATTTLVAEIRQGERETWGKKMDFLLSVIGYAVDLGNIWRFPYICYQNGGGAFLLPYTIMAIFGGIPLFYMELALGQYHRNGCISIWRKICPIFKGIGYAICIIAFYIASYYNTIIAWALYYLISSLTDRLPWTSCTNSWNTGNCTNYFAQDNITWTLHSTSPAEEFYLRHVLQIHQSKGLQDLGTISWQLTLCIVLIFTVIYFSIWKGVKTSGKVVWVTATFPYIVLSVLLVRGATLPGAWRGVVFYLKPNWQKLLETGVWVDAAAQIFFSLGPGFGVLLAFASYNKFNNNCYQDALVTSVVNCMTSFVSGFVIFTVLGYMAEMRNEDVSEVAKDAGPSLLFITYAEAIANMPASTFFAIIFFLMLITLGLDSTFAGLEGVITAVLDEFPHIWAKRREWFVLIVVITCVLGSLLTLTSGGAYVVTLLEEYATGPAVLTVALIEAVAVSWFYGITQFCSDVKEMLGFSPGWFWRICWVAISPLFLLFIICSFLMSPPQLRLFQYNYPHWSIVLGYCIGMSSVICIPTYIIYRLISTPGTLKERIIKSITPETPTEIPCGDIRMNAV

For `NCCc1c[nH]c2ccc(O)cc12` [Serotonin], the Km was 2.21 µM.
